Results published in patent US20090196918A1, “Liposomal formulations of hydrophobic lactone drugs in the presence of metal ions” (University of Kentucky Research Foundation, priority 2008, published 2009).

Tests used:
[1] = Drug loading of DB-67 into liposomes by passive encapsulation
[2] = Release of DB-67 from liposomes (dialysis at 37° C., HPLC analysis); type: physicochemical
Description: The drug/cyclodextrin solution was used to hydrate phospholipids (DSPC, 40 mg/ml) with vigorous shaking at 60° C. to form a suspension of multilamellar vesicles. The suspension was extruded through a high-pressure extruder to form unilamellar vesicles. […] A small amount of this micellar solution was added to the unilamellar vesicles following extrusion and incubated at 60° C. for 5 min. The vesicles were then cooled at room temperature and stored below 5° C. until use. Prior to use, liposomes were separated from unentrapped drug by passing through a gel filtration column which was pre-equilibrated with pH 7.4 “carbonated” phosphate buffered saline (PBS). “Carbonated” PBS was prepared at physiological concentration of carbonate, phosphate and sodium chloride such that the total solute concentration of the buffer was isoosmotic with that of whole blood. […] 100 μl samples were taken from inside the dialysis tube at various time intervals and diluted into 900 μl of ice-cold solution of methanol and acetonitrile (2:1, v/v) at -25° C. Following dilution samples were stored at -25° C. until HPLC analysis. […] Liposomes were separated from the unentrapped drug and HPβCD by size exclusion chromatography on Sephadex® columns. […] The pipette tip used for sampling was washed in the same quenching solution to transfer any adsorbed drug. […] Following dialysis, samples were withdrawn from the dialysis tube, diluted into methanol, and stored at -25° C. until HPLC analysis. […] The sampling and processing conditions were the same as in the pH-permeability studies described earlier. The effect of varying intravesicular pH on the apparent permeability was probed only at a single (50 mM) cyclodextrin concentration.

[3] = animal data, intravenous administration; cited from earlier work

CC[C@@]1(O)C(=O)OCc2c1cc1n(c2=O)Cc2c-1nc1ccc(O)cc1c2[Si](C)(C)C(C)(C)C [DB-67, 7-t-butyldimethylsilyl-10-hydroxycamptothecin]
DB-67 concentration of liposome suspension that could be prepared (loading) ([1]; absence of cyclodextrin, all drug is entrapped): 0.05 mg/mL | DB-67 concentration of liposome suspension that could be prepared (loading) ([1]; intraliposomal pH increased to 9.5, with hydroxypropyl-β-cyclodextrin): 1.4 mg/mL | drug retention in liposomes as a function of pH ([2]; increasing pH, intravesicular cyclodextrin constant at 50 mM (FIG. 4)): increases drug retention | release profile of DB-67 from liposomes ([2]; liposomes prepared at pH 4, citrate buffer, 0.1 M hydroxypropyl-β-cyclodextrin (FIG. 2)): uniform release profile | release profile of DB-67 from liposomes ([2]; liposomes prepared at pH 7.4, citrate buffer, 0.1 M hydroxypropyl-β-cyclodextrin (FIG. 3)): uniform release | lactone to total AUC [3]: > 90%
